Data reported in the NIST ThermoML archive (doi:10.1007/s10765-006-0080-z).
Numbers after ± are expanded uncertainties.

How the values were obtained:
[1] = for thermal diffusivity: 101.33 kPa, Laser flash
[2] = molar heat capacity at constant pressure; conditions: 101.33 kPa, Laser pulse heating

[Zr] [zirconium]
Conditions | molar heat capacity at constant pressure, [2] [J/K/mol] | thermal diffusivity, [1] [m2/s]
289 K, Crystal 2 | – | 1.25e-05 ± 1.7e-06
293 K, Crystal 2 | 26.31 ± 1.7 | –
323 K, Crystal 2 | 26.57 ± 1.4 | –
327 K, Crystal 2 | – | 1.17e-05 ± 7e-07
373 K, Crystal 2 | 26.89 ± 0.97 | –
379 K, Crystal 2 | – | 1.11e-05 ± 4e-07
423 K, Crystal 2 | 27.31 ± 0.9 | 1.07e-05 ± 5e-07
473 K, Crystal 2 | 27.78 ± 0.88 | 1.03e-05 ± 2e-07
523 K, Crystal 2 | 28.27 ± 0.88 | –
524 K, Crystal 2 | – | 1.01e-05 ± 6e-07
569 K, Crystal 2 | – | 9.95e-06 ± 2e-07
573 K, Crystal 2 | 28.82 ± 0.89 | –
621 K, Crystal 2 | – | 9.84e-06 ± 8e-07
623 K, Crystal 2 | 29.33 ± 0.91 | –
670 K, Crystal 2 | – | 9.74e-06 ± 7e-07
673 K, Crystal 2 | 29.88 ± 0.93 | –
715 K, Crystal 2 | – | 9.76e-06 ± 5e-07
723 K, Crystal 2 | 30.6 ± 0.95 | –
772 K, Crystal 2 | – | 9.89e-06 ± 6e-07
773 K, Crystal 2 | 31.24 ± 0.94 | –
823 K, Crystal 2 | 31.87 ± 0.96 | –
827 K, Crystal 2 | – | 9.97e-06 ± 5e-07
872 K, Crystal 2 | – | 1.01e-05 ± 1.2e-06
873 K, Crystal 2 | 32.53 ± 0.98 | –
923 K, Crystal 2 | 33.26 ± 0.99 | 1.02e-05 ± 2e-07
970 K, Crystal 2 | – | 1.03e-05 ± 1.6e-06
973 K, Crystal 2 | 33.94 ± 1 | –
1023 K, Crystal 2 | 34.6 ± 1 | 1.05e-05 ± 6e-07
1068 K, Crystal 2 | – | 1.06e-05 ± 8e-07
1073 K, Crystal 2 | 35.23 ± 1.1 | –
1083 K, Crystal 2 | 35.42 ± 1.1 | –
1093 K, Crystal 2 | 35.84 ± 1.3 | –
1103 K, Crystal 2 | 36.88 ± 1.6 | –
1113 K, Crystal 2 | 39.48 ± 2.2 | –
1121 K, Crystal 2 | – | 9.27e-06 ± 9e-07
1123 K, Crystal 2 | 43.12 ± 3.2 | –
1128 K, Crystal 2 | 45.62 ± 4 | –
1132 K, Crystal 2 | – | 8.29e-06 ± 1.7e-06
1133 K, Crystal 2 | 49.09 ± 5.3 | –
1138 K, Crystal 2 | 61.42 ± 8.2 | –
1143 K, Crystal 1 | 52.29 ± 5.5 | 7.99e-06
1148 K, Crystal 1 | 42.04 ± 5.6 | –
1150 K, Crystal 1 | – | 1.09e-05 ± 2.3e-06
1153 K, Crystal 1 | 33.83 ± 4.4 | –
1163 K, Crystal 1 | 31 ± 2.9 | –
1173 K, Crystal 1 | 29.58 ± 1.8 | –
1177 K, Crystal 1 | – | 1.41e-05 ± 5e-07
1218 K, Crystal 1 | – | 1.43e-05 ± 9e-07
1223 K, Crystal 1 | 29.71 ± 0.89 | –
1272 K, Crystal 1 | – | 1.48e-05 ± 3e-07
1273 K, Crystal 1 | 30.06 ± 0.9 | –
1317 K, Crystal 1 | – | 1.5e-05 ± 1.9e-06
1323 K, Crystal 1 | 30.23 ± 0.9 | –
1370 K, Crystal 1 | – | 1.51e-05 ± 8e-07
1373 K, Crystal 1 | 30.3 ± 0.91 | –
1423 K, Crystal 1 | 30.53 ± 0.91 | –
1431 K, Crystal 1 | – | 1.57e-05 ± 1.8e-06
1468 K, Crystal 1 | – | 1.57e-05 ± 2.3e-06
1473 K, Crystal 1 | 30.72 ± 0.92 | –
1523 K, Crystal 1 | 30.91 ± 0.93 | –
1573 K, Crystal 1 | 31.36 ± 0.94 | –
1623 K, Crystal 1 | 31.34 ± 0.94 | –
1673 K, Crystal 1 | 31.59 ± 0.95 | –
1723 K, Crystal 1 | 32.07 ± 0.96 | –
1773 K, Crystal 1 | 32.8 ± 0.99 | –
1823 K, Crystal 1 | 33.31 ± 1 | –
1873 K, Crystal 1 | 33.5 ± 1 | –
1923 K, Crystal 1 | 33.68 ± 1 | –
1973 K, Crystal 1 | 34.23 ± 1 | –

Conditions | Triple point temperature [K]
[1], Crystal 2, Laser pulse heating | 1141.4 ± 10
